Source: patent publication US8067458B2, “Alkoxyalkyl-substituted cyclic ketoenols” (Bayer Cropscience AG, priority 2006, dated 2011)
Values joined by “and” are separate entries in the source; they are usually repeats but may differ in a detail not shown here. Equal entries are not always repeated. Where two headings read alike, the source gives them in different places.

Experiments:
[1] = Determination of the log P values by HPLC on a reversed phase column (C18); format: physicochemical; conditions: 43° C., EEC Directive 79/831 Annex V.A8
Description: The log P values reported in the table were determined in accordance with EEC Directive 79/831 Annex V.A8 by means of HPLC (high performance liquid chromatography) on a reversed phase column (C18). Temperature: 43° C. […] Calibration was carried out with unbranched alkan-2-ones (having 3 to 16 carbon atoms) whose log P values are known (log P values determined on the basis of the retention times by means of linear interpolation between two successive alkanones).

[2] = Penetration of active compounds through enzymatically isolated cuticles of apple leaves; conditions: spray liquor on isolated cuticles; 20° C., 60% rh; average of 5 to 6 measurements
Spring wheat = format: in vivo; conditions: post-emergence
Spring barley = format: in vivo; conditions: post-emergence
Maize - CECILIA = experiment: Greenhouse container trials with maize, safener 1 day prior to herbicide application, pre-emergence; format: in vivo; conditions: 50 g a.i./ha, 28 days after application
Description: (§1) Seeds of monocotyledonous and dicotyledonous weed plants and crop plants are placed in sandy loam soil in wood fibre pots or in plastic pots and are covered with earth. The pots are easily fitted and then the soil surface is treated with the test compounds, formulated as wettable powders (WP) or liquids (EC) in various dosages, with a water application rate of 300 l/ha (converted). […] If the testing is also to look at whether safeners can improve the tolerance of the crop plants for test substances, the following options are used for the application of the safener: • seeds of the crop plants are dressed with the safener substance prior to sowing (the amount of safener is stated as a percentage, based on the seed weight) • crop plants are sprayed with the safener, with a defined application rate per hectare, prior to application of the test substances (typically 1 day before the test substances are applied) • the safener is applied together with the test substance in the form of a tank mix (the amount of safener is reported in g/ha or as a proportion relative to the herbicide). By comparing the effect of test substances on crop plants which have been treated with safener and without safener it is possible to assess the effect of the safener substance.

Maize - Arsenal = experiment: as above; format: in vivo; conditions: 28 days after application
Description: as §1

[3] = tested on: caterpillars of the army worm (Spodoptera frugiperda); experiment: Spodoptera frugiperda test (spray treatment); format: in vivo; conditions: 500 g/ha, maize leaf discs
Description: Solvent: 78 parts by weight of acetone • • 1.5 parts by weight of dimethylformamide Emulsifier: 0.5 part by weight of alkylaryl polyglycol ether A suitable preparation of active compound is prepared by mixing 1 part by weight of active compound with the stated amounts of solvent and emulsifier and diluting the concentrate with emulsifier-containing water to the desired concentration. Leaf discs of maize (Zea mays) are sprayed with a preparation of active compound at the desired concentration and after they have dried are populated with caterpillars of the army worm (Spodoptera frugiperda).

[4] = 10 days after application, 25 g a.i./ha
[5] = 10 days after application, 50 g a.i./ha
[6] = 28 days after application, 25 g a.i./ha
[7] = 28 days after application, 50 g a.i./ha
[8] = 10 days after application, 12.5 g a.i./ha
[9] = 10 days after application, 100 g a.i./ha
[10] = 28 days after application, 100 g a.i./ha
[11] = 25 g a.i./ha, 10 days after application
[12] = 50 g a.i./ha, 10 days after application

Structure (SMILES): COCC(C)(NC(=O)Cc1c(C2CC2)cc(C)cc1C1CC1)C(=O)OC (stereo not shown) [II-27]
- logP [1]: logP 3.19

Structure (SMILES): N.N.O=S(=O)(O)O [ammonium sulphate]
- penetration through apple leaf cuticles (effect of additive, in words) [2]: significantly improves the penetration

Structure (SMILES): CCc1cc(C)cc(C)c1C1=C(OC(=O)COC)C(C)(COC)NC1=O (racemic) [I-b-11]
- Spring wheat observed (%) (Spring wheat; [4]): 10%
- Spring wheat observed (%) (Spring wheat; [5]): 60%
- Spring wheat observed (%) (Spring wheat; [6]): 10%
- Spring wheat observed (%) (Spring wheat; [7]): 50%
- Spring barley observed (%) (Spring barley; [8]): 10%
- Spring barley observed (%) (Spring barley; [4]): 15%
- Spring barley observed (%) (Spring barley; [5]): 50%
- Spring barley observed (%) (Spring barley; [9]): 70%
- Spring barley observed (%) (Spring barley; [7]): 25%
- Spring barley observed (%) (Spring barley; [10]): 55%

Structure (SMILES): CCc1cc(C)cc(Br)c1CC(=O)NC(C)(CCOC)C(=O)OC (stereo not shown) [II-35]
- logP [1]: logP 3.39

Structure (SMILES): CCc1cc(Cl)cc(OC)c1C1=C(OC(=O)C(C)C)C(C)(COC)NC1=O (racemic) [I-b-10]
- Maize - CECILIA observed (%) (Maize - CECILIA): 15%
- Maize - Arsenal observed (%) (Maize - Arsenal; 12.5 g a.i./ha): 5%
- Maize - Arsenal observed (%) (Maize - Arsenal; 25 g a.i./ha): 15%
- Maize - Arsenal observed (%) (Maize - Arsenal; 50 g a.i./ha): 25%

Structure (SMILES): CCc1cc(C)cc(C2CC2)c1CC(=O)NC(C)(COC)C(=O)OC (racemic) [II-20]
- logP [1]: oil logP 3.13

Structure (SMILES): CCc1cc(C)cc(C)c1C1=C(OC(=O)C(C)C)C(C)(COC)NC1=O (racemic) [I-b-4]
- Spring wheat observed (%) (Spring wheat; 12.5 g a.i./ha, 10 days after application): 30%
- Spring wheat observed (%) (Spring wheat; [11]): 50%
- Spring wheat observed (%) (Spring wheat; [12]): 70%
- Spring wheat observed (%) (Spring wheat; [4]): 10%
- Spring wheat observed (%) (Spring wheat; [5]): 50%
- Spring wheat observed (%) (Spring wheat; [9]): 75%
- Spring wheat observed (%) (Spring wheat; [6]): 10%
- Spring wheat observed (%) (Spring wheat; 28 days after application, 50 g a.i./ha, listed as Ex. I-b-4): 15% and 5%
- Spring wheat observed (%) (Spring wheat; [10]): 30%
- Spring barley observed (%) (Spring barley; [11]): 30%
- Spring barley observed (%) (Spring barley; [12]): 40%
- Spring barley observed (%) (Spring barley; [5]): 25%
- Spring barley observed (%) (Spring barley; [9]): 65%

Structure (SMILES): CCc1cc(Cl)cc(OC)c1CC(=O)NC(C)(CCOC)C(=O)OC (stereo not shown) [II-33]
- logP [1]: logP 3.21

Structure (SMILES): CCc1cc(C)cc(C)c1CC(=O)NC(C)(CCOC)C(=O)OC (stereo not shown) [II-28]
- logP [1]: logP 3.19

Structure (SMILES): CCOc1cc(Cl)cc(CC)c1CC(=O)NC(C)(CCOC)C(=O)OC (stereo not shown) [II-34]
- logP [1]: logP 3.64

Structure (SMILES): COCC1(C)NC(=O)C(c2c(C)cc(C)cc2Cl)=C1O (racemic) [I-a-12]
- activity (effect in %, caterpillars killed) [3]: ≥ 80%

Structure (SMILES): CCc1cc(Cl)cc(OC)c1C1=C(O)C(C)(COC)NC1=O (racemic) [I-a-10]
- Spring wheat observed (%) (Spring wheat; 28 days after application, 12.5 g a.i./ha): 5%
- Spring wheat observed (%) (Spring wheat; [6]): 15%
- Spring wheat observed (%) (Spring wheat; [7]): 25%

Structure (SMILES): CCc1cc(C)cc(Br)c1C1=C(O)C(C)(COC)NC1=O (racemic) [I-a-6]
- Spring wheat observed (%) (Spring wheat; [7]): 20%
- Spring wheat observed (%) (Spring wheat; [10]): 30%

Structure (SMILES): COCCC(C)(NC(=O)Cc1c(C)cc(C)cc1C)C(=O)OC (stereo not shown) [II-29]
- logP [1]: logP 2.86

Structure (SMILES): CCc1cc(C)cc(OC)c1C1=C(OC(=O)C(C)C)C(C)(COC)NC1=O (racemic) [I-b-9]
- Spring wheat observed (%) (Spring wheat; [8]): 15%
- Spring wheat observed (%) (Spring wheat; [4]): 60%
- Spring wheat observed (%) (Spring wheat; [6]): 60%
- Spring wheat observed (%) (Spring wheat; [7]): 85%
- Spring barley observed (%) (Spring barley; [4]): 25%
- Spring barley observed (%) (Spring barley; [5]): 75%
- Spring barley observed (%) (Spring barley; [6]): 25%
- Spring barley observed (%) (Spring barley; [7]): 70%
